In paper PMC8778818, “Synthesis, Structural Characterization and Anticancer Activity of New 5-Trifluoromethyl-2-thioxo-thiazolo[4,5-d]pyrimidine Derivatives” (Pharmaceuticals, 2022):
Entries after “also recorded” stand apart in the source; their conditions may differ.

Legend:
HOP-62 = assay: NCI-60 screen, Non-Small Cell Lung Cancer HOP-62; format: cell-based; settings: HOP-62, 10^−5 M one dose
SNB-75 = assay: NCI-60 screen, CNS Cancer SNB-75; format: cell-based, human; settings: SNB-75, 10^−5 M one dose
RPMI-8226 = assay: NCI-60 screen, Leukemia RPMI-8226; format: cell-based, human; settings: RPMI-8226, 10^−5 M one dose
OVCAR-3 = assay: NCI-60 screen, Ovarian Cancer OVCAR-3; format: cell-based, human; settings: OVCAR-3, 10^−5 M one dose
PC-3 = assay: NCI-60 screen, Prostate C. PC-3; format: cell-based; settings: PC-3, 10^−5 M one dose
OVCAR-8 = assay: NCI-60 screen, Ovarian Cancer OVCAR-8; format: cell-based, human; settings: OVCAR-8, 10^−5 M one dose
CAKI-1 = assay: NCI-60 screen, Renal Cancer CAKI-1; format: cell-based, human; settings: CAKI-1, 10^−5 M one dose
[1] = test system: 60 human cancer cell lines; assay: NCI-60 anticancer screen, full panel; format: cell-based; settings: 10^−5 M one dose
SK-MEL-5 = assay: NCI-60 screen, Melanoma SK-MEL-5; format: cell-based, human; settings: SK-MEL-5, 10^−5 M one dose
MDA-MB-231/ATCC = assay: NCI-60 screen, Breast Cancer MDA-MB-231/ATCC; format: cell-based; settings: MDA-MB-231/ATCC, 10^−5 M one dose
786-0 = assay: NCI-60 screen, Renal Cancer 786-0; format: cell-based; settings: 786-0, 10^−5 M one dose
NCI/ADR-RES = assay: NCI-60 screen, Ovarian Cancer NCI/ADR-RES; format: cell-based, human; settings: 10^−5 M one dose
HOP-92 = assay: NCI-60 screen, Non-Small Cell Lung Cancer HOP-92; format: cell-based, human; settings: HOP-92, 10^−5 M one dose
C32 = assay: MTT cell viability assay, C32; format: cell-based, human; settings: Homo sapiens; C32, MTT, 72 h, mean ± SD
Summary of the method: (§1)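 MTT absorbance at 560 nm gives viability as % of untreated cells after 72 h exposure to 50–5000 µM compound. Monolayers seeded at 3 × 10^4 cells/well; DMEM + 10% FBS, with CHO-K1 grown in HAM's F-12 + 10% FBS.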

NCI-H460 = assay: NCI-60 screen, Non-Small Cell Lung Cancer NCI-H460; format: cell-based, human; settings: NCI-H460, 10^−5 M one dose
MCF-7/WT = assay: MTT cell viability assay, MCF-7/WT; format: cell-based; settings: Homo sapiens, MCF7, 72 h, mean ± SD
Summary of the method: as §1

SR = assay: NCI-60 screen, Leukemia SR; format: cell-based, human; settings: 10^−5 M one dose
NCI-H226 = assay: NCI-60 screen, Non-Small Cell Lung Cancer NCI-H226; format: cell-based, human; settings: NCI-H226, 10^−5 M one dose
SF-268 = assay: NCI-60 screen, CNS Cancer SF-268; format: cell-based, human; settings: SF-268, 10^−5 M one dose
UACC-257 = assay: NCI-60 screen, Melanoma UACC-257; format: cell-based; settings: UACC-257, 10^−5 M one dose

SMILES: Fc1ccc(CNc2nc(C(F)(F)F)nc3c2sc(=S)n3-c2ccccc2)cc1 [Compound 4c]
- Growth of Cells (%) (HOP-62): 92.88%
- Growth of Cells (%) (SNB-75): 103.11%
- Growth of Cells (%) (RPMI-8226): 104.96%
- Growth of Cells (%) (OVCAR-3): 111.62%
- Growth of Cells (%) (PC-3): 100.51%
- Growth of Cells (%) (OVCAR-8): 98.68%
- Growth of Cells (%) (CAKI-1): 94.38%
- activity in the one-dose assay (in words) [1]: insufficient activity; also recorded: inactive
- Mean Growth % ([1]; mean over the panel): 105.13%
- Growth of Cells (%) (SK-MEL-5): 105.71%
- Growth of Cells (%) (MDA-MB-231/ATCC): 119.48%
- Growth of Cells (%) (786-0): 99.38%
- Growth of Cells (%) (NCI/ADR-RES): 114.00%
- Growth of Cells (%) (HOP-92): 106.96%
- IC50 (C32): 485 ± 21.2 µM
- Growth of Cells (%) (NCI-H460): 109.73%
- IC50 (MCF-7/WT): 568 ± 24.8 µM
- Growth of Cells (%) (SR): 94.72%
- Growth of Cells (%) (NCI-H226): 112.41%
- Growth of Cells (%) (SF-268): 109.32%
- Growth of Cells (%) (UACC-257): 96.72%
